Experimental data taken from ChEMBL document CHEMBL1201862, “PubChem BioAssay data set” (2004).
Activity calls are given as the source filed them.

What was measured:
Cytochrome P450 2C19 = Cytochrome P450 2C19 (Homo sapiens, UniProt P33261); assay: Cytochrome panel assay with activity outcomes. Panel member name: p450-cyp2c19 Compounds with AC50 equal or less than 10 uM are considered active; format: functional
Cytochrome P450 1A2 = target: T1, Cytochrome P450 1A2 (Homo sapiens, UniProt P05177);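 note: PubChem cytochrome P450 panel assay, CYP1A2 panel member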
T1 sequence (P05177 whole entry): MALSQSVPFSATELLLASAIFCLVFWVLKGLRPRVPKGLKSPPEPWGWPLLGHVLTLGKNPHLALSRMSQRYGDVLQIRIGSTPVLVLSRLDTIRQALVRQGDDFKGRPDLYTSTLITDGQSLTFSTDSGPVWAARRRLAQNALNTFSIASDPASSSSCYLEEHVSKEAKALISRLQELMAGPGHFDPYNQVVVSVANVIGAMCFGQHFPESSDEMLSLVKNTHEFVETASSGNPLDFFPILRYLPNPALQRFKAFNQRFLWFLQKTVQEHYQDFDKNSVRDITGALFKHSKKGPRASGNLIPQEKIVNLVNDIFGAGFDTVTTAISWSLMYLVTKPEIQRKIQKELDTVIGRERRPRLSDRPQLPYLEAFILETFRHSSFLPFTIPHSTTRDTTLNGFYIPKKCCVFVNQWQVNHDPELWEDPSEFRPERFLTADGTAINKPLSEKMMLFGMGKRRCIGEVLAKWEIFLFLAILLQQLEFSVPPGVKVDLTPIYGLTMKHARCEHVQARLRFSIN

INS1 = assay: INS-1E survival protection against cytokine death – cell-based, luminescence, retest, dose response (AID 449756); format: functional; conditions: Rattus norvegicus;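 note: cell death triggered by IL-1 beta plus TNF-alpha plus IFN-gamma mixture; protective hits raise ATP signal compared with cytokine alone wells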
Cytochrome P450 3A4 = Cytochrome P450 3A4 (Homo sapiens, UniProt P08684);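 note: CYP3A4 tested as one member of a cytochrome P450 panel screen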
Cytochrome P450 3A4, sequence (P08684 whole entry): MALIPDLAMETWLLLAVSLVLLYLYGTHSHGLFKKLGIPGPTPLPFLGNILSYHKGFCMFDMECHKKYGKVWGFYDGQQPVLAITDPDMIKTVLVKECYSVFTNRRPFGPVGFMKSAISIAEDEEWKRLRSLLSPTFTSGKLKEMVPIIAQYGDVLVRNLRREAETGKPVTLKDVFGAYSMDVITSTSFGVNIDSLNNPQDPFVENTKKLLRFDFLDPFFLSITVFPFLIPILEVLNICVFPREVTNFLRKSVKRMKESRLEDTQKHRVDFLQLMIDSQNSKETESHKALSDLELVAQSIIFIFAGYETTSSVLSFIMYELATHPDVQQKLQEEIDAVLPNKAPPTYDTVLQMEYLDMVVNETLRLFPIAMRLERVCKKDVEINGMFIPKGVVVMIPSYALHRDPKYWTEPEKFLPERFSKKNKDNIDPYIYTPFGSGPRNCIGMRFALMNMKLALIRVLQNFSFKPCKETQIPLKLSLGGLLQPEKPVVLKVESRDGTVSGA

Cytochrome P450 2C9 = Cytochrome P450 2C9 (Homo sapiens, UniProt P11712)
Cytochrome P450 2C9, sequence (P11712 whole entry): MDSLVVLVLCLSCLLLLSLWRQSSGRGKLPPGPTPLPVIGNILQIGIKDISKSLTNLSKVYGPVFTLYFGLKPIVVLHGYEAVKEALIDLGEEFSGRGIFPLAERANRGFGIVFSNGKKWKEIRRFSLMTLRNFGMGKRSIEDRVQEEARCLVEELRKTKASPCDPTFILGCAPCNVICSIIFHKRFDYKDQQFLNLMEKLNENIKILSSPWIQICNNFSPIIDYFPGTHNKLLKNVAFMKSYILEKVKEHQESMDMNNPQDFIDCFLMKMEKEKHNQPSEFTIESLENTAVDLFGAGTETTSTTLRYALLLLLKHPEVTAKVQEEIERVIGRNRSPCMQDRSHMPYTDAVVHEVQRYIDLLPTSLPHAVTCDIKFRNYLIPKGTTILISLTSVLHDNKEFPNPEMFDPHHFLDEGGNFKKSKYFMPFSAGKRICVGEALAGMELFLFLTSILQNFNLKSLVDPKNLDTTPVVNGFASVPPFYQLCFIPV

Cytochrome P450 2C19, sequence (P33261 whole entry): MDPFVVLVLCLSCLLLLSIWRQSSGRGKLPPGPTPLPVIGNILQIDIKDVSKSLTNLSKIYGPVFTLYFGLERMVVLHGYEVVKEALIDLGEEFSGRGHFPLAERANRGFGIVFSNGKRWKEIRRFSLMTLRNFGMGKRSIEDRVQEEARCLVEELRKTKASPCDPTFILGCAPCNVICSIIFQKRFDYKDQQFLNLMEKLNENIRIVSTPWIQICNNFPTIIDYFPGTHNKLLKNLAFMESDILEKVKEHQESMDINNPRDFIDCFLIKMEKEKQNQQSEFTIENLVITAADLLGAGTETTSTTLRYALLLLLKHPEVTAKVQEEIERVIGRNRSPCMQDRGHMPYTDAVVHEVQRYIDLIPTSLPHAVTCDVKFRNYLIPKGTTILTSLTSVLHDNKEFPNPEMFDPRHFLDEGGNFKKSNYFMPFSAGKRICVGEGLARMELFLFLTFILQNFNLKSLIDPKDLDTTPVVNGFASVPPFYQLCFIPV

`Cc1cccc(-c2c3c(=O)n(C)c(=O)n(C)c3cn2C2CCCCC2)c1` was tested, and the AC50 (Cytochrome P450 2C19) was “inconclusive”.

`O=S(=O)(c1ccccc1)N1CCC2(CCCN(c3ncccn3)C2)CC1` was tested, and the AC50 (Cytochrome P450 1A2) was 15.8 µM (inconclusive).

`CC(C)C[C@H]1C(=O)N2CCC[C@@H]2[C@@]2(O)O[C@](NC(=O)[C@@H]3C=C4c5cccc6[nH]cc(c56)C[C@@H]4N(C)C3)(C(C)C)C(=O)N12` was tested, and the AC50 (Cytochrome P450 1A2) was 12.6 µM (inconclusive).

`COc1ccc(Br)cc1CN(C)CC(=O)NCc1ccc(F)cc1` was tested, and the AC50 (INS1) was 114 µM (active).

In the case of `Cc1ccc(CN(C(=O)c2cc3ccccc3oc2=O)C2CCS(=O)(=O)C2)cc1` (stereo not drawn), the AC50 (Cytochrome P450 1A2) is reported as 31.6 µM (inconclusive) and the AC50 (Cytochrome P450 3A4) is reported as 4.47 µM (inconclusive).

With `O=C(Nc1ccc2ccccc2c1)c1onc2c1CCCC2` the AC50 (Cytochrome P450 2C19; read-out: AC50) was 15.8 µM (inconclusive).

For `O=C1[C@@H]2[C@H]3[C@H](O)[C@H](O)C/C(=N/OC[C@@H](O)COCc4ccco4)[C@H]3CC[C@H]2C(=O)N1c1ccc(F)cc1F`, the AC50 (Cytochrome P450 2C19) was “inconclusive” and the AC50 (Cytochrome P450 3A4) was 3.16 µM (inconclusive).

`CCCCN1C(=O)/C(=C\c2ccco2)C(=O)N(CCc2ccccc2)C1=O` was tested, and the AC50 (Cytochrome P450 1A2) was 28.2 µM (inconclusive) and the AC50 (Cytochrome P450 3A4) was 12.6 µM (inconclusive).

In the case of `C/C(Cl)=C/CSc1nnc2n(N)c(=O)c3ccccc3n12`, the AC50 (Cytochrome P450 2C19; read-out: AC50) is reported as 25.1 µM (inconclusive) and the AC50 (Cytochrome P450 2C9) is reported as 22.4 µM (inconclusive).

For `CCc1ccc(C(=O)N2CCC(c3nc4ccccc4s3)CC2)cc1`, the AC50 (Cytochrome P450 1A2) was 17.8 µM (inconclusive) and the AC50 (Cytochrome P450 3A4) was 39.8 µM (inconclusive).

For `O=C(NCCO)c1cc2c(s1)CCC2`, the AC50 (Cytochrome P450 2C19; read-out: AC50) was 5.01 µM (inconclusive), the AC50 (Cytochrome P450 1A2) was 14.1 µM (inconclusive) and the AC50 (Cytochrome P450 2C9) was 12.6 µM (inconclusive).

With `C=C[C@H](CC(C)C)N(Cc1ccccc1)S(=O)(=O)N(Cc1ccc(OC)cc1)[C@H](C=C)CC(C)C` the AC50 (INS1) was 5.78 µM (active).

With `O=C(NCc1nc2ccccc2[nH]1)[C@H]1C[C@@H]1[C@H](NP(=O)(c1ccccc1)c1ccccc1)c1ccccc1` the AC50 (Cytochrome P450 2C19; read-out: AC50) was 39.8 µM (inconclusive), the AC50 (Cytochrome P450 1A2) was 15.8 µM (inconclusive) and the AC50 (Cytochrome P450 3A4) was 0.794 µM (inconclusive).

With `Cc1cc(=O)n2c3ccccc3n(CC(O)CN3CCCCC3)c2c1C#N` (stereo not drawn) the AC50 (Cytochrome P450 1A2) was 15.8 µM (inconclusive).

For `CCC1(O)c2ccccc2-c2ncccc21` (stereo not drawn), the AC50 (Cytochrome P450 2C19; read-out: AC50) was 39.8 µM (inconclusive).

For `COc1cnc(-c2ccccn2)nc1Sc1c(Cl)cccc1Cl`, the AC50 (Cytochrome P450 2C19; read-out: AC50) was 8.91 µM (inconclusive), the AC50 (Cytochrome P450 1A2) was 2.82 µM (inconclusive) and the AC50 (Cytochrome P450 2C9) was 15.8 µM (inconclusive).

With `CCCCCCc1ccc(N2C[C@H](Cc3ccccc3)[C@@H](CC(=O)NCc3ccc(OC)cc3)C2=O)cc1` the AC50 (INS1) was 7.78 µM (active).

In the case of `O=C(Oc1ccccc1)N1CCC[C@@]2(CCN(C(c3ccccc3)c3ccccc3)C2)C1`, the AC50 (Cytochrome P450 1A2) is reported as 25.1 µM (inconclusive).

In the case of `Clc1ccc(-c2nnc(-c3ccc(Br)cc3)c(N3CCSCC3)n2)cc1`, the AC50 (Cytochrome P450 2C19; read-out: AC50) is reported as 11.2 µM (inconclusive) and the AC50 (Cytochrome P450 2C9) is reported as 10 µM (inconclusive).

`Cn1cccc1C(=O)N1CCC2(CCN(Cc3ccccc3)CC2)CC1` was tested, and the AC50 (Cytochrome P450 2C19; read-out: AC50) was 39.8 µM (inconclusive).

With `Cc1cccc(CNc2ccc(S(=O)(=O)N3CCCCC3)cc2)c1` the AC50 (INS1) was 27.2 µM (active).

In the case of `O=[N+]([O-])c1ccc(N2CCN(CCOc3nonc3-c3ccccc3)CC2)c(Cl)c1`, the AC50 (INS1) is reported as 4.8 µM (active) and the AC50 (Cytochrome P450 3A4) is reported as 14.1 µM (inconclusive).

`C[C@H]1C2=C3C(CC[C@H]4C(OCc5ccc(F)cc5C(F)(F)F)OC[C@](C)([C@@H]34)N(C(=O)OC(C)(C)C)C2)C2COC(=O)OCC21` (stereo partly drawn) was tested, and the AC50 (Cytochrome P450 1A2) was 6.31 µM (inconclusive).

In the case of `Cc1cc(C)nc(NN2C(=O)/C(=C/c3ccccc3)SC2=S)n1`, the AC50 (Cytochrome P450 2C19) is reported as “inconclusive”.

For `N#Cc1ccc(-c2csc(NNC(=O)c3ccccc3)n2)cc1`, the AC50 (INS1) was > 260 µM (inactive).

For `Cc1noc(C)c1C(=O)N1CCC[C@@]2(CCN(Cc3cc(C(F)(F)F)cc(C(F)(F)F)c3)C2)C1`, the AC50 (Cytochrome P450 2C19) was “inconclusive” and the AC50 (Cytochrome P450 3A4) was 7.94 µM (inconclusive).

`CCOC(=O)c1cc(NC(=O)c2ccc(C)cc2)c(=O)oc1-c1ccccc1` was tested, and the AC50 (Cytochrome P450 2C19; read-out: AC50) was 2.82 µM (inconclusive) and the AC50 (Cytochrome P450 3A4) was 28.2 µM (inconclusive).

`COC(=O)[C@@]1(Cc2ccc(F)cc2)[C@H]2c3cc(C(=O)N4CCCC4)n(CCc4ccc(OC)c(Br)c4)c3C[C@H]2CN1C(=O)c1ccccc1` was tested, and the AC50 (Cytochrome P450 1A2) was 15.8 µM (inconclusive).

With `NCCNC(=S)S` the AC50 (Cytochrome P450 2C19; read-out: AC50) was 3.98 µM (inconclusive) and the AC50 (Cytochrome P450 2C9) was 6.31 µM (inconclusive).

In the case of `COc1ccc(-[n+]2c(-c3ccc(Cl)cc3)cn3c2CCCCC3)cc1`, the AC50 (INS1) is reported as 1.44 µM (active).

For `COc1ccc(Nc2cc(=O)n(C3CCCCC3)c(=O)[nH]2)c(OC)c1`, the AC50 (Cytochrome P450 1A2) was 31.6 µM (inconclusive) and the AC50 (Cytochrome P450 2C9) was 25.1 µM (inconclusive).

`CN(C)C(=O)c1ccc(-c2ccc3ncnc(NCCN4CCOCC4)c3c2)cc1` was tested, and the AC50 (Cytochrome P450 1A2) was 25.1 µM (inconclusive) and the AC50 (Cytochrome P450 3A4) was 15.8 µM (inconclusive).

In the case of `CC(C)(CS)C(=O)N1CCC[C@H]1C(=O)O`, the AC50 (Cytochrome P450 2C19; read-out: AC50) is reported as 15.8 µM (inconclusive).

For `CNCCC=C1c2ccccc2C=Cc2ccccc21`, the AC50 (Cytochrome P450 1A2) was 6.31 µM (inconclusive) and the AC50 (Cytochrome P450 3A4) was 12.6 µM (inconclusive).

With `COc1ccc(Oc2ncc3nc(-c4ccc(Cl)cc4)c(=O)n(C[C@H]4CCCO4)c3n2)cc1` the AC50 (Cytochrome P450 2C19; read-out: AC50) was 25.1 µM (inconclusive).

`COc1cc2c(C(=O)NCc3ccc(C)o3)cn(CC(C)C)c(=O)c2cc1OC` was tested, and the AC50 (Cytochrome P450 1A2) was 1.58 µM (inconclusive) and the AC50 (Cytochrome P450 2C9) was 10 µM (inconclusive).

`COC(=O)[C@@]1(Cc2ccc(OC)cc2)[C@H]2c3cc(C(=O)N(C)C)n(Cc4ccc(C(F)(F)F)nc4)c3C[C@H]2CN1C(=O)c1ccccc1` was tested, and the AC50 (Cytochrome P450 2C19; read-out: AC50) was 39.8 µM (inconclusive) and the AC50 (Cytochrome P450 2C9) was 39.8 µM (inconclusive).

For `CN1C(=O)C(CC(=O)Nc2ccc(F)cc2)N(CCCc2ccccc2)C1=S` (stereo not drawn), the AC50 (Cytochrome P450 2C19; read-out: AC50) was 1.78 µM (inconclusive), the AC50 (Cytochrome P450 1A2) was 25.1 µM (inconclusive) and the AC50 (Cytochrome P450 3A4) was 22.4 µM (inconclusive). The AC50 (Cytochrome P450 2C9) was 2.82 µM (inconclusive).

`COc1cccc(Nc2ncc3nc(CCc4ccccc4)c(=O)n(Cc4cccs4)c3n2)c1` was tested, and the AC50 (Cytochrome P450 1A2) was 3.16 µM (inconclusive) and the AC50 (Cytochrome P450 3A4) was 6.31 µM (inconclusive).

`Clc1ccc(C(c2ccc(Cl)cc2)[n+]2ccn(C[C@@H](OCc3ccc(Cl)cc3Cl)c3ccc(Cl)cc3Cl)c2)cc1` was tested, and the AC50 (Cytochrome P450 2C19; read-out: AC50) was 25.1 µM (inconclusive).

With `Cc1ccc(-n2ncc(N(C)C)c(Cl)c2=O)cc1` the AC50 (Cytochrome P450 1A2) was 14.1 µM (inconclusive) and the AC50 (Cytochrome P450 3A4) was 28.2 µM (inconclusive).

For `Cc1cccc(CS(=O)(=O)Cc2ccc(C(=O)NCc3ccco3)o2)c1`, the AC50 (Cytochrome P450 2C19; read-out: AC50) was 3.55 µM (inconclusive), the AC50 (Cytochrome P450 1A2) was 5.01 µM (inconclusive) and the AC50 (Cytochrome P450 3A4) was 39.8 µM (inconclusive). The AC50 (Cytochrome P450 2C9) was 7.08 µM (inconclusive).

For `Cc1ccc2[nH]c3nc(CCCn4ccnc4-c4ccccc4)nnc3c2c1`, the AC50 (Cytochrome P450 2C19; read-out: AC50) was 2.51 µM (inconclusive) and the AC50 (Cytochrome P450 3A4) was 3.16 µM (inconclusive).

With `COC(=O)c1ccc(NC(C)=O)o1` the AC50 (Cytochrome P450 2C19; read-out: AC50) was 39.8 µM (inconclusive) and the AC50 (Cytochrome P450 1A2) was 22.4 µM (inconclusive).

With `Cc1cccc2c(SCC(=O)NCC3CCCO3)nc(-c3ccc(F)cc3)nc12` (stereo not drawn) the AC50 (Cytochrome P450 1A2) was 0.447 µM (inconclusive).

In the case of `COCCCn1nnnc1SCC(=O)N1CCCC1`, the AC50 (Cytochrome P450 2C19; read-out: AC50) is reported as 25.1 µM (inconclusive) and the AC50 (Cytochrome P450 2C9) is reported as 0.0126 µM (inconclusive).

For `Cc1nnc2ccccc2c1O`, the AC50 (Cytochrome P450 1A2) was 0.398 µM (inconclusive).

`COCCCNC(=S)N/N=C/c1cccc(OC)c1O` was tested, and the AC50 (INS1) was 2.44 µM (active).

For `CO/C(O)=C1\C(C)=NC(C)=C([N+](=O)[O-])[C@H]1c1ccccc1C(F)(F)F`, the AC50 (Cytochrome P450 1A2) was 31.6 µM (inconclusive).

With `Cc1nnc(S)n1/N=C/c1ccccc1OCc1ccc(Cl)cc1` the AC50 (Cytochrome P450 2C19; read-out: AC50) was 11.2 µM (inconclusive).

In the case of `C/C(=N/NC(=O)CN(c1ccccc1)S(=O)(=O)c1ccccc1)c1ccccc1O`, the AC50 (INS1) is reported as 2.01 µM (active).

For `CC(C)(C)NC[C@@H](O)COc1ccccc1C1CCCC1`, the AC50 (Cytochrome P450 1A2) was 10 µM (inconclusive) and the AC50 (Cytochrome P450 2C9) was 12.6 µM (inconclusive).

With `COc1ccc(C(Cl)=C(c2ccc(OC)cc2)c2ccc(OC)cc2)cc1` [CHLOROTRIANISENE] the AC50 (Cytochrome P450 2C19; read-out: AC50) was 0.1 µM (inconclusive).

`CCOc1ccc(Cc2nccc3cc(OCC)c(OCC)cc23)cc1OCC` [ETHAVERINE] was tested, and the AC50 (Cytochrome P450 1A2) was 10 µM (inconclusive).

With `CN1CCN2c3ncccc3Cc3ccccc3C2C1` (stereo not drawn) [MIRTAZAPINE] the AC50 (Cytochrome P450 1A2) was 20 µM (inconclusive).
